A compilation of properties of binary mixtures (doi:10.1021/acs.jced.5b00338)

Experiment: xn = mol fraction of the nth substance listed
Details: 100 kPa

O=C1OCCO1 + CC[n+]1ccn(C)c1.O=S(=O)([N-]S(=O)(=O)C(F)(F)F)C(F)(F)F
Details	electrical conductivity [S/m]	viscosity [mPa·s]
293.15 K, x1 = 0.33	1.02	–
293.15 K, x1 = 0.5263	–	15.1
293.15 K, x1 = 0.53	1.24	–
293.15 K, x1 = 0.7476	–	8.1
293.15 K, x1 = 0.75	1.57	–
293.15 K, x1 = 0.82	1.52	–
293.15 K, x1 = 0.87	1.44	–
293.15 K, x1 = 0.91	1.33	–
293.15 K, x1 = 0.95	1.03	–
303.15 K, x1 = 0.8163	–	4.1
303.15 K, x1 = 0.9467	–	3
313.15 K, x1 = 0.33	1.68	–
313.15 K, x1 = 0.5263	–	9
313.15 K, x1 = 0.53	1.97	–
313.15 K, x1 = 0.66	2.32	–
313.15 K, x1 = 0.7476	–	4.6
313.15 K, x1 = 0.75	2.34	–
313.15 K, x1 = 0.8163	–	3.4
313.15 K, x1 = 0.82	2.23	–
313.15 K, x1 = 0.87	2.05	–
313.15 K, x1 = 0.91	1.86	–
313.15 K, x1 = 0.9467	–	2.4
313.15 K, x1 = 0.98	0.85	–
313.15 K, x1 = 1	–	1.81
323.15 K, x1 = 0.5263	–	7.1
323.15 K, x1 = 0.7476	–	3.9
323.15 K, x1 = 0.8163	–	2.8
323.15 K, x1 = 0.9467	–	2.1
323.15 K, x1 = 1	–	1.56
333.15 K, x1 = 0.5263	–	5.8
333.15 K, x1 = 0.53	2.71	–
333.15 K, x1 = 0.66	3.2	–
333.15 K, x1 = 0.7476	–	3.3
333.15 K, x1 = 0.75	3.18	–
333.15 K, x1 = 0.82	2.98	–
333.15 K, x1 = 0.87	2.7	–
333.15 K, x1 = 0.91	2.45	–
333.15 K, x1 = 0.9467	–	1.84
333.15 K, x1 = 0.98	1.1	–
333.15 K, x1 = 1	–	1.4
343.15 K, x1 = 0.7476	–	2.7
343.15 K, x1 = 0.8163	–	1.97
343.15 K, x1 = 0.9467	–	1.48
353.15 K, x1 = 0.33	3.29	–
353.15 K, x1 = 0.5263	–	4
353.15 K, x1 = 0.53	4.04	–
353.15 K, x1 = 0.7476	–	2.3
353.15 K, x1 = 0.75	4.43	–
353.15 K, x1 = 0.8163	–	1.74
353.15 K, x1 = 0.87	3.59	–
353.15 K, x1 = 0.91	3.01	–
353.15 K, x1 = 0.95	2.29	–
353.15 K, x1 = 1	–	1.07
363.15 K, x1 = 0.5263	–	3.4
363.15 K, x1 = 0.7476	–	2.03
363.15 K, x1 = 0.9467	–	1.2
363.15 K, x1 = 1	–	0.96
373.15 K, x1 = 0.7476	–	1.83
373.15 K, x1 = 0.8163	–	1.4
373.15 K, x1 = 0.9467	–	1.08
383.15 K, x1 = 0.5263	–	2.7
383.15 K, x1 = 0.8163	–	1.29
383.15 K, x1 = 0.9467	–	0.97
383.15 K, x1 = 1	–	0.74
393.15 K, x1 = 0.5263	–	2.4
393.15 K, x1 = 0.8163	–	1.19
393.15 K, x1 = 1	–	0.71

CC[n+]1ccn(C)c1.O=S(=O)([N-]S(=O)(=O)C(F)(F)F)C(F)(F)F + O=C1OCCO1
x2 = 0
Details	electrical conductivity [S/m]	viscosity [mPa·s]
293.15 K	0.73	41.6
298.15 K	0.9	33.9
303.15 K	–	27.3
313.15 K	1.29	19.1
323.15 K	–	14.4
333.15 K	1.94	11.3
343.15 K	–	8.3
353.15 K	2.73	6.8
363.15 K	–	5.6
373.15 K	–	4.8
